Common to all, as to assay: microbe, parasite or virus in culture
Holding throughout (assay type): cell-based

Assay [1] concerns SARS-CoV-2 alpha (B.1.1.7). To be noted: for Selectivity index: SARS-CoV-2α, HEK293TA cells; for EC50: Severe acute respiratory syndrome coronavirus 2.
Another assay relates to SARS-CoV-2gamma (P.1). To be noted: for Selectivity index: SARS-CoV-2γ, HEK293TA cells; for EC50: Severe acute respiratory syndrome coronavirus 2.
The subject of assay [2] is SARS-CoV-2 delta (B.1.617.2). To be noted: for Selectivity index: SARS-CoV-2δ, HEK293TA cells; for EC50: Severe acute respiratory syndrome coronavirus 2.

A word on the EC50: it is the concentration giving half of the maximal effect. A high value points to a need for much substance. `O=C(CCCCCCCCc1ccc(O)c(O)c1)c1c(O)cccc1O` [Compound 1, Malabaricone C]: the Selectivity index in assay [1] was 2.6; in the assay with SARS-CoV-2gamma (P.1), 3.6; in assay [2] it was 3.4. Besides, the EC50 in assay [1] stood at 1900 nM; with SARS-CoV-2gamma (P.1), 1700 nM; in assay [2], 1900 nM.
Take `CC(C)C(=O)OC[C@H]1O[C@@H](n2ccc(NO)nc2=O)[C@H](O)[C@@H]1O` [Molnupiravir]: the Selectivity index in assay [1] came out at 14.7; with SARS-CoV-2gamma (P.1), 13; in assay [2], 13. Besides, the concentration giving a half-maximal response (EC50) turned out to be 400 nM in assay [1], 520 nM with SARS-CoV-2gamma (P.1) and 450 nM in assay [2].
As for `CCC(CC)COC(=O)[C@H](C)N[P@](=O)(OC[C@H]1O[C@@](C#N)(c2ccc3c(N)ncnn23)[C@H](O)[C@@H]1O)Oc1ccccc1` [Remdesivir], the EC50 (in assay [1]; with SARS-CoV-2gamma (P.1); in assay [2]) was less than 78 nM each time.

Source of the values: paper PMC11903690 (Scientific Reports, 2025).
